Measurements taken from patent publication US20250171431A1, “HETEROCYCLIC INHIBITORS OF IGF-1R FOR TREATMENT OF DISEASE” (HORIZON THERAPEUTICS IRELAND DAC, priority 2023, published 2025).

Target: IGF-1R (Homo sapiens (Human), UniProt P08069)
Assay: Example B-1: IGF-1R Assay (PC3 cells, IGF1 stimulation, AlphaLISA)
Type: cell-based
Details: 200 ng/mL IGF1 stimulation, read-out: Biological Activity against IGF-1R IC50
In short: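 Readout is AlphaLISA signal from lysed PC3 cells, expressed as % inhibition versus vehicle and EC80 controls and banded by IC50. Before lysis, the cells were starved of serum for 2 h, exposed to 3× serially diluted compound for 2 h, and stimulated for 30 min with 200 ng/mL IGF1 (final).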

Sequence of IGF-1R (P08069 31-1367): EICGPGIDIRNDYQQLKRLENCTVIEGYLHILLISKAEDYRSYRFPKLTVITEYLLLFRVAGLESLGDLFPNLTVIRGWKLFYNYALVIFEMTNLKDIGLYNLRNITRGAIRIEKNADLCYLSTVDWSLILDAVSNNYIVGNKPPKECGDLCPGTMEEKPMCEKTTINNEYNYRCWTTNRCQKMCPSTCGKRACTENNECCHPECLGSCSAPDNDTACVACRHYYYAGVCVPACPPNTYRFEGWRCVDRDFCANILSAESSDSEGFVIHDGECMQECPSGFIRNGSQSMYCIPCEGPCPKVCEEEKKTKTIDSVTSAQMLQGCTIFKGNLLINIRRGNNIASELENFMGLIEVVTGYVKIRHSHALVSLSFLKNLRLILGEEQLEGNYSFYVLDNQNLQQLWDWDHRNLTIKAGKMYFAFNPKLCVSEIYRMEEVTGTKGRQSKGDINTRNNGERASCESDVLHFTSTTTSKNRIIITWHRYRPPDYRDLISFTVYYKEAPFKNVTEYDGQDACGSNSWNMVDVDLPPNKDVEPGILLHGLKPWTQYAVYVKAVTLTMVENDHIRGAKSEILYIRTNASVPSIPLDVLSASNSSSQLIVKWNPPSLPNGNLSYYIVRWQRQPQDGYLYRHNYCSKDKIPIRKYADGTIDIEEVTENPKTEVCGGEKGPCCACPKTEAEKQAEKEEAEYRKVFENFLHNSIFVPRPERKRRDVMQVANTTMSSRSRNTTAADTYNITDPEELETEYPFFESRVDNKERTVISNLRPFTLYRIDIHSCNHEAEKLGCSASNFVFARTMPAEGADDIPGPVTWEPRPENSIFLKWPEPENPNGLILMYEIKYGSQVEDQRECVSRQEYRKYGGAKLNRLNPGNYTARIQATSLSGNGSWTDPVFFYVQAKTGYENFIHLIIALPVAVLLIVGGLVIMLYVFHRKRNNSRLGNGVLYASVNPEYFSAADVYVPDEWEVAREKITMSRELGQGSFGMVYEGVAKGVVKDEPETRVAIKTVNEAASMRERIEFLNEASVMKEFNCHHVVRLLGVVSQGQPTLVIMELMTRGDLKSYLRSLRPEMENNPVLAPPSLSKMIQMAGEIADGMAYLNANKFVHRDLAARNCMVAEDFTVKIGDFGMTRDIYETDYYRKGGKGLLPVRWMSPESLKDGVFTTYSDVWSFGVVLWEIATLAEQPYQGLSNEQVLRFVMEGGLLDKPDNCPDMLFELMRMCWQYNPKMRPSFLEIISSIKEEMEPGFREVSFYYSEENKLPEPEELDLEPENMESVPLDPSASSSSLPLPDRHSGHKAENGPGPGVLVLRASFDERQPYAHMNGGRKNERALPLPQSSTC

SMILES | IC50
CN(C)[C@H]1C[C@H](Oc2ccc(Nc3nccc(Nc4cnc5ccccc5c4)n3)cc2Br)C1 [Compound 34, 2-{3-bromo-4-[(1r,3r)-3-(dimethylamino)cyclobutoxy]phenylamino}-4-(3-quinolylamino)pyrimidine] | ≤ 500 nM
COc1cc(Nc2nccc(Nc3cnc4c(c3)OC(CN(C)C)CO4)n2)ccc1O[C@H]1C[C@@H](N(C)C)C1 (stereo partly shown) [Compound 259, 4-{2-[(dimethylamino)methyl]-2,3-dihydro-1,4-dioxa-5-aza-7-naphthylamino}-2-{3-methoxy-4-[(1s,3s)-3-(dimethylamino)cyclobutoxy]phenylamino}pyrimidine] | ≤ 500 nM
COc1cc(Nc2nccc(Nc3cnc4c(ccn4C)c3)n2)ccc1O[C@H]1C[C@@H](N(C)C)C1 [Compound 282, 2-{3-methoxy-4-[(1s,3s)-3-(dimethylamino)cyclobutoxy]phenylamino}-4-(1-methyl-1H-1,7-diazainden-5-ylamino)pyrimidine] | ≤ 500 nM
COc1cc(Nc2nccc(Nc3cnc4cc(F)c(F)cc4c3)n2)cnc1N1CCN(C)CC1 [Compound 468, 4-(6,7-difluoro-3-quinolylamino)-2-[5-methoxy-6-(4-methyl-1-piperazinyl)-3-pyridylamino]pyrimidine] | ≤ 500 nM
COc1cc(Nc2cc(Nc3cnc4ccccc4c3)ccn2)ccc1O[C@H]1C[C@@H](N(C)C)C1 [Compound 265, 2-{3-methoxy-4-[(1s,3s)-3-(dimethylamino)cyclobutoxy]phenylamino}-4-(3-quinolylamino)pyridine] | 2000 to 10000 nM
COc1cc(Nc2nccc(Nc3cnc4c(c3)CCC3(CCCC3)C4)n2)ccc1O[C@H]1C[C@H](N(C)C)C1 [Compound 78, 4-(6′,8′-dihydro-5′H-spiro[cyclopentane-1,7′-quinolin]-3′-ylamino)-2-{3-methoxy-4-[(1r,3r)-3-(dimethylamino)cyclobutoxy]phenylamino}pyrimidine] | ≤ 500 nM
COc1cc(Nc2nccc(Nc3ccc4c(n3)CC3CCC4N3C)n2)ccc1OCCCN1CCCCC1 (stereo not shown) [Compound 4, 2-[3-methoxy-4-(3-piperidinopropoxy)phenylamino]-4-(12-methyl-6,12-diazatricyclo[7.2.1.0^2,7]dodeca-2,4,6-trien-5-ylamino)pyrimidine] | 2000 to 10000 nM

Other lines, results leading:

IC50 | SMILES
≤ 500 nM | COc1cc(Nc2nccc(Nc3cnc4ccccc4c3)n2)ccc1O[C@H]1CC[C@@H](N2CCOCC2)CC1 [Compound 18, 2-{3-methoxy-4-[(1s,4s)-4-morpholinocyclohexyloxy]phenylamino}-4-(3-quinolylamino)pyrimidine]
≤ 500 nM | CC1(C)CCc2ncc(Nc3ccnc(Nc4ccc(OCCCN5CCOCC5)cc4)n3)cc2C1 [Compound 63, 4-(6,6-dimethyl-5,6,7,8-tetrahydro-3-quinolylamino)-2-[p-(3-morpholinopropoxy)phenylamino] pyrimidine]
≤ 500 nM | COc1cc(Nc2nccc(Nc3cnc4ccc(Br)cc4c3)n2)ccc1O[C@H]1CC[C@@H](N(C)C)CC1 [Compound 33, 4-(6-bromo-3-quinolylamino)-2-{3-methoxy-4-[(1s,4s)-4-(dimethylamino)cyclohexyloxy]phenylamino}pyrimidine]
500 to 2000 nM | C[C@H]1COc2ncc(Nc3ccnc(Nc4ccc(OCCCN5CCOCC5)cc4)n3)cc2O1 [Compound 106, 4-[(S)-2-methyl-2,3-dihydro-1,4-dioxa-5-aza-7-naphthylamino]-2-[p-(3-morpholinopropoxy)phenylamino]pyrimidine]
2000 to 10000 nM | COc1cc(Nc2nccc(Nc3cnc4cc(Br)cnc4c3)n2)ccc1OC1CN(C)C1 [Compound 292, 4-(7-bromo-1,5-diaza-3-naphthylamino)-2-[3-methoxy-4-(1-methyl-3-azetidinyloxy)phenylamino] pyrimidine]
≤ 500 nM | COc1ccc2cc(Nc3ccnc(Nc4ccc(OCCCN5CCCCC5)c(OC)c4)n3)ccc2c1 [Compound 444, 4-(6-methoxy-2-naphthylamino)-2-[3-methoxy-4-(3-piperidinopropoxy)phenylamino] pyrimidine]
